{"source": "patent US20230099031A1", "about": "“BIFUNCTIONAL AGENTS FOR PROTEIN RECRUITMENT AND/OR DEGRADATION” (Orionis Biosciences, Inc., priority 2019, published 2023)", "assay_type_in_all_cases": "cell-based", "key": {"CRBN": {"biological_target": "T1, CRBN (Homo sapiens, UniProt Q96SW2)", "T1 construct": "expressed in transfected cells; host or cells: HEK293T", "test": "Competition Assay: MAPPIT-like, competition with trimethoprim-lenalidomide hybrid ligand for binding to CRBN in HEK293T cells", "settings": "protocol and reagents of Example 1; read-out: IC50 Competition"}, "ASS1": {"biological_target": "T2, ASS1 (Homo sapiens, UniProt P00966+Q96SW2)", "T2 construct": "Full size proteins are fused for each of the target proteins tested; expressed in transfected cells; host or cells: HEK293T", "test": "Recruitment Assay (MAPPIT-like): ASS1 recruitment, pSEL-CRBN+pMG1-ASS1", "settings": "recruitment of ASS1, protocol of Example 2; read-out: EC50_ASS1", "in_short": "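Cells co-transfected with CRBN- and substrate-fusion constructs (pSEL-CRBN+pMG1-ASS1; pSEL-SALL4+pMG1-CRBN; pSEL-CRBN+pMG1-IKZF1 isoform 7), then treated 24 h post-transfection with Epo ± compound dose series. Luciferase read after 24 h as fold induction over Epo alone (triplicates); 4-parameter nonlinear fit.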"}, "IKZF1": {"biological_target": "T3, IKZF1 (Homo sapiens, UniProt Q13422+Q96SW2)", "T3 construct": "expressed in transfected cells; host or cells: HEK293T", "test": "Recruitment Assay (MAPPIT-like): IKZF1 recruitment, pSEL-CRBN+pMG1-IKZF1(isoform 7)", "settings": "recruitment of IKZF1, protocol of Example 2; read-out: EC50_IKZF1", "procedure": "In this experimental set-up, cells are transfected with a construct encoding a CRBN-fusion protein and another one encoding a substrate-fusion protein. Test compound activity is assessed with increasing concentrations of test compounds (dose-response studies) to monitor the ability to promote CRBN-ligand-induced protein interaction.\nFull size proteins are fused for each of the target proteins tested, except in the case of IKZF1 where isoform 7 is used, and BRD4, where isoform 3 is applied. For the study, the following construct combinations are used: IKZF1 recruitment: pSEL-CRBN+pMG1-IKZF1(isoform 7); ASS1 recruitment: pSEL-CRBN+pMG1-ASS1; SALL4 recruitment: pSEL-SALL4+pMG1-CRBN; DHFR recruitment: pCLG-DHFR+pMG1-CRBN; ESR1 recruitment: pSEL-CRBN+pMG1-ESR1; BRD4 recruitment: pSEL-CRBN+pMG1-BRD4(isoform 3). Cells are treated with erythropoietin (Epo; where pSEL-type receptor fusions constructs are used) or leptin (in the case pCLG-type receptor fusion constructs are applied) without or with the indicated dose of test compound at 24 hours after transfection. Luciferase activity is measured 24 hours after test compound treatment using the Luciferase Assay System kit (PROMEGA, Madison, Wis.) with an Ensight plate reader (PERKIN ELMER LIFE SCIENCES, Waltham, Mass.). Data points depict fold induction of the average luciferase activity of triplicate samples from Epo or leptin+test compound treated cells versus Epo or leptin only treated cells. Error bars represent standard deviations. Curves are fit using 4-parameter nonlinear regression in […] PRISM software."}, "IKZF1, ASS1 and SALL4": {"system": "IKZF1, ASS1 and SALL4", "test": "Recruitment assessment: recruitment of any tested substrate from among IKZF1, ASS1 and SALL4 (MAPPIT-like recruitment assays)", "settings": "any tested substrate among IKZF1, ASS1, SALL4 at any tested concentration"}}, "data": [{"smiles": "Cc1ccc(NC(=O)NCc2ccc3c(c2)CN(C2CCC(=O)NC2=O)C3=O)cc1Cl", "note": "(stereo not shown) [CC-885, 1-(3-chloro-4-methyl-phenyl)-3-[[2-(2,6-dioxo-3-piperidyl)-1-oxo-isoindolin-5-yl]methyl]urea, reference compound]", "values": [{"measurement": "IC50", "setting": "CRBN", "result": 0.465, "unit": "nM"}, {"measurement": "EC50", "setting": "ASS1", "result": 80.1, "unit": "nM"}, {"measurement": "EC50", "setting": "IKZF1", "result": "< 13.7", "unit": "nM"}, {"measurement": "Recruitment Assessment", "setting": "IKZF1, ASS1 and SALL4", "result": "TRUE"}]}]}
